Data taken from the NIST ThermoML archive (doi:10.1021/je700254t).

Experiment: xn = mol fraction of the nth substance listed
Settings: 101.3 kPa, Liquid

CCCO [propan-1-ol] + c1ccccc1
x1 = 1
Settings	mass density [kg/m3]
288.15 K	807.69
293.15 K	803.703
298.15 K	799.692
303.15 K	795.65
308.15 K	791.576
313.15 K	787.466

ClC(Cl)Cl [trichloromethane] + CCCO
mass density [kg/m3]
Settings	288.15 K	293.15 K	298.15 K	303.15 K	308.15 K	313.15 K
x2 = 0	1498.08	1488.64	1479.15	1469.61	1460.03	1450.41
x2 = 0.0493	1465.28	1456.03	1446.74	1437.41	1428.01	1418.58
x2 = 0.0992	1432.56	1423.54	1414.47	1405.35	1396.17	1386.95
x2 = 0.1499	1399.07	1390.3	1381.48	1372.61	1363.67	1354.7
x2 = 0.2002	1365.96	1357.46	1348.9	1340.28	1331.6	1322.86
x2 = 0.2496	1333.59	1325.35	1317.05	1308.69	1300.27	1291.8
x2 = 0.2999	1300.43	1292.46	1284.43	1276.34	1268.19	1260.01
x2 = 0.3493	1267.61	1259.92	1252.16	1244.35	1236.47	1228.55
x2 = 0.4004	1233.49	1226.07	1218.59	1211.06	1203.46	1195.83
x2 = 0.4502	1200.08	1192.93	1185.74	1178.48	1171.16	1163.79
x2 = 0.5001	1166.15	1159.29	1152.38	1145.42	1138.38	1131.32
x2 = 0.5497	1132.24	1125.66	1119.03	1112.35	1105.6	1098.81
x2 = 0.5999	1097.62	1091.33	1084.99	1078.61	1072.15	1065.65
x2 = 0.6497	1062.78	1056.79	1050.75	1044.65	1038.49	1032.31
x2 = 0.7001	1027.34	1021.65	1015.91	1010.11	1004.26	998.364
x2 = 0.7499	991.931	986.531	981.083	975.586	970.031	964.415
x2 = 0.7998	956.019	950.913	945.767	940.572	935.323	930.03
x2 = 0.8503	919.243	914.435	909.588	904.699	899.757	894.778
x2 = 0.9002	882.47	877.949	873.397	868.803	864.163	859.496
x2 = 0.95	845.487	841.239	836.96	832.652	828.298	823.912
